Results from patent US12102706B2, “Peptide composition and respective uses” (Universidade do Minho, priority 2013, dated 2024).
Values joined by “and” are separate entries in the source; they are usually repeats but may differ in a detail not shown here. Equal entries are not always repeated.

Assays:
[1] = system: keratin; assay: Binding of Alexa Fluor 647-marked keratin to peptides attached to glass, microarray scanner intensity (Example 4); parameters: species or system human; details: peptide 15 fmol/mm2 on glass; keratin 1 μg/mL, 2 hours at 37° C.; three replicas
Method: In order to assess the interactions between the keratin and some peptides, a keratin solution was prepared. This procedure was performed by immersing African hair, acquired from the International Hair Importers and Products, Inc. (New York), in a solution containing 8 M urea, 0.2 M sodium dodecyl sulfate and 0.5 M sodium bisulfate. The mixture was heated to 50° C. for 24 h in a shaker bath. The solution was dialyzed for several days against double-distilled water. The keratin solution was then concentrated using AMICON with a 3 kDa cut-off.
The reaction was incubated for 1 h30 min at room temperature and in the dark.
The keratin was then diluted to 1 μg/mL in blocking buffer (3% BSA in tris-buffered saline (TBS) with 0.05% Tween 20).
After incubation, the glasses were rinsed in successive washing solutions: TBS+0.1% Tween 20 and blocking buffer with 3% BSA in TBS+0.1% Tween 20, for 3 minutes in each solution.
The imaging of the glasses was performed in Agilent G2565CA Microarray Scanner System. Three replicas of the each peptide incubation were performed and analyzed.

[2] = Mechanical tests (Young modulus, maximum load, stretching) of relaxed (reduced) human hair after peptide treatment (Example 3)
Method: The formulation was tested in different hair types: • virgin hair washed, with the cuticle intact and absence of chemical damages; • hair after reduction treatment, at 37° C. in phosphate buffer at pH=8, with 3M GndHCl and 0.05M DTT for 2 hours.
For the treatment with the peptide SEQ ID NO: 412, concentrations of 0.01% (w/w) were used.

[3] = Mechanical resistance test (Young modulus) of bleached human hair after direct application of peptide (Example 2); details: peptide treatment after bleaching
Method: The hair was supplied from International Hair Importers and Products, Inc. (New York). Hair fibers were pre-treated by bleaching. The formulation was tested in different hair types: • virgin hair washed, with the cuticle intact and absence of chemical damages; • hair after 8 bleaching treatments, at 50° C. in 0.1 M Na2CO3/NaHCO3 buffer, at pH=9, 10% H2O2, for 1 hour.
The incorporation of the peptides was performed by direct application in the hair surface. The mechanical resistance tests were performed after the treatment of the hair with the peptide.
The measurements of mechanical resistance were performed using a cell with 2.5 N maximum load and a deformation rate of 1.5 mm/min. Each hair was individually mounted in the tensile jig by means of a paper template with a fixed gauge length of 20 mm.

[4] = Mechanical test (Young modulus) of bleached human hair treated with serum or mask, with and without peptide (Example 1); details: formulations containing the peptide vs without peptide
Method: The tests were performed with in human hair after 8 treatments of bleaching, at 50° C. in 0.1 M Na2CO3/NaHCO3 buffer, at pH=9, 10% H2O2, for 1 hour.
Each of the formulations was tested with and without the peptide sequence ID NO:5, which contains in the sequence 15% of cysteine.
The hair mask was applied to the hair after 8 bleaching treatments, being left to act for 15 minutes, mimicking the procedure indicated in commercial masks. Posteriorly, the hair was washed. The serum was applied to the hair after 8 bleaching treatments, being left to act for 1 hour at 37° C. Posteriorly, the hair was not washed, as in typical commercial procedures the serum should be applied in dry hair. The hair was also tested after 5 applications.
After the treatment, mechanical tests were performed, using a cell with 2.5 N maximum load and a deformation rate of 1.5 mm/min. Each hair was individually mounted in the tensile jig by means of a paper template with a fixed gauge length of 20 mm.

Row | Intensity level (average ± standard deviation), normalized [1] | Sequence | also measured
1 | 0.990±0.014 | ASCVSLLCRP (listed as Homo sapiens) [SEQ.ID NO:179] | 
2 | 1 and 1.000 ± 0.000 | CEPAICEPSC (listed as Homo sapiens) [SEQ.ID NO:432] | 
3 |  | CGPSPPCITT (listed as Homo sapiens) [SEQ.ID NO:412] | hair stretching (average) ([2]; relaxed hair after peptide treatment): 72%; maximum load test, maximum of resistance ([2]; relaxed hair fiber after peptide treatment): 126 MPa; Young modulus (average) ([2]; relaxed hair fiber after peptide treatment at 0.01%): 4190 MPa
4 | 1 and 1.000 ± 0.000 | CLPCLPAASC (listed as Homo sapiens) [SEQ.ID NO:75] | 
5 |  | GGVCGPSPPC (listed as Homo sapiens) [SEQ.ID NO:409] | Young modulus [3]: 5649±1022 MPa
6 |  | GVCGPSPPCI (listed as Homo sapiens) [SEQ.ID NO:5] | mechanical resistance of the damaged hair [4]: increase in mechanical resistance
7 | 1 and 1.000 ± 0.000 | SCCAPVYCCK (listed as Homo sapiens) [SEQ.ID NO:951] | 

Row | Sequence | Intensity level (average ± standard deviation), normalized [1] | also measured
8 | CISSSCCPSCC (listed as Homo sapiens) [SEQ.ID NO:1108] | 1 and 1.000 ± 0.000 | 
9 | CQCSCCKPYCS (listed as Homo sapiens) [SEQ.ID NO:1131] | 1 and 1.000 ± 0.000 | 
